Data published in ChEMBL document CHEMBL4507268 (2021).

Legend:
[1] = target: Phosphatidylinositol 4-phosphate 3-kinase C2 domain-containing subunit alpha (Homo sapiens) (UniProt O00443); settings: Compound concentration 1.0 uM
[2] = target: MAPK/MAK/MRK overlapping kinase (Homo sapiens) (UniProt Q9UQ07); settings: Compound concentration 1.0 uM
[3] = target: T1, Serine/threonine-protein kinase BRSK1 (Homo sapiens) (UniProt Q8TDC3); settings: Compound concentration 1.0 uM
T1 sequence (whole entry): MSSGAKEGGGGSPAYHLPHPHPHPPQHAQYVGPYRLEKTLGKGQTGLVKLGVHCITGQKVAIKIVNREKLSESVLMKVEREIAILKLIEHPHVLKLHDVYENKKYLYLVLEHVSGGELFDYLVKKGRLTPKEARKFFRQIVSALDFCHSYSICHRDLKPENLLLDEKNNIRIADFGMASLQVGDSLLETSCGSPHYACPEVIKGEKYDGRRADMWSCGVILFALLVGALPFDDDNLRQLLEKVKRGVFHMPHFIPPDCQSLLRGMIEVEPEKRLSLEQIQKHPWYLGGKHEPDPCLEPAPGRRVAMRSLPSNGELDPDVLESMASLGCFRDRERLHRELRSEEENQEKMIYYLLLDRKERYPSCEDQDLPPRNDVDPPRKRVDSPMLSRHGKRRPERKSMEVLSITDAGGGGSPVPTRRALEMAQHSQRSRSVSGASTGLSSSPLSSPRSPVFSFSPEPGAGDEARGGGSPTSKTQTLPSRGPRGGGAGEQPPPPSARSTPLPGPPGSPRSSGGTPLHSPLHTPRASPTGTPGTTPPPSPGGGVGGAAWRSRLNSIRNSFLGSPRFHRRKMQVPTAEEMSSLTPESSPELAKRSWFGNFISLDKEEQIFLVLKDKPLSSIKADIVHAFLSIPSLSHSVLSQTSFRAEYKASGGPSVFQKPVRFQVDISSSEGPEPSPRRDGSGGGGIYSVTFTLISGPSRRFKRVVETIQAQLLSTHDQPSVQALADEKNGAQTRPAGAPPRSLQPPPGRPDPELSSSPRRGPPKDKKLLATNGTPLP

[4] = target: Protein kinase C eta type (Homo sapiens) (UniProt P24723); settings: Compound concentration 1.0 uM
Chain of Protein kinase C eta type (Homo sapiens) (P24723 whole entry): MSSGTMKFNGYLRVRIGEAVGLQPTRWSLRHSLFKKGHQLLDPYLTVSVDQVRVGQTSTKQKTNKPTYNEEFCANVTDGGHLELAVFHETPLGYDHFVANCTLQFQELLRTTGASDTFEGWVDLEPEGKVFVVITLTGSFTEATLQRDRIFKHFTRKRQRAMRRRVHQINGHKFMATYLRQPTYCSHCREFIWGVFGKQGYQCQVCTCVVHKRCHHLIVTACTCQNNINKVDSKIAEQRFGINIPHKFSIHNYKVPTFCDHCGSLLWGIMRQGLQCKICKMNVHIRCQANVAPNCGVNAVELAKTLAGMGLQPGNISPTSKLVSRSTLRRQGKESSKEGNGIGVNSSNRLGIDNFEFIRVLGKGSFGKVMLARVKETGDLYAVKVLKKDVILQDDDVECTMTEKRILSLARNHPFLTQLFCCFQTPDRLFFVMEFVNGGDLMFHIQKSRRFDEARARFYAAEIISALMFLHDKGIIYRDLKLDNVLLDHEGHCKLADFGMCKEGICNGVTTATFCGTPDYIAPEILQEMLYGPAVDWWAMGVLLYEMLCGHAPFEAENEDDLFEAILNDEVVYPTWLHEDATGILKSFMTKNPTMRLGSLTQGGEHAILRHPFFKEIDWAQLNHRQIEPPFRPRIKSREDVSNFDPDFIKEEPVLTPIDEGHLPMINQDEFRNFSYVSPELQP

[5] = target: Dual specificity protein kinase CLK2 (Homo sapiens) (UniProt P49760); settings: Compound concentration 1.0 uM
Chain of Dual specificity protein kinase CLK2 (Homo sapiens) (P49760 whole entry, looked up): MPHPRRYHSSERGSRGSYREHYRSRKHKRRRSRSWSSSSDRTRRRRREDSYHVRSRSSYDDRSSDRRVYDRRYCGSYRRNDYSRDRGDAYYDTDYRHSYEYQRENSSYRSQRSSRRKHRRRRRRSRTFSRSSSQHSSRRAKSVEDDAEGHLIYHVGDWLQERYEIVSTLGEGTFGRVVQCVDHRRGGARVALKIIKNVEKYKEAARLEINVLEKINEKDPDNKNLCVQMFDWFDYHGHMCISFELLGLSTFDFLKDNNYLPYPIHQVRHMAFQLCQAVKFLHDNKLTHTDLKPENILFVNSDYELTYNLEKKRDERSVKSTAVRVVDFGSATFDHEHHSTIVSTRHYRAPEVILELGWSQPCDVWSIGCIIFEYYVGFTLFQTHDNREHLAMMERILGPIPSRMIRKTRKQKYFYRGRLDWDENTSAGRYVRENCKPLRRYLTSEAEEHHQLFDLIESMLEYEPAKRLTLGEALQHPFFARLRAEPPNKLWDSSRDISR

[6] = target: T2, Myosin-IIIb (Homo sapiens) (UniProt Q8WXR4); settings: Compound concentration 1.0 uM
T2 sequence (whole entry): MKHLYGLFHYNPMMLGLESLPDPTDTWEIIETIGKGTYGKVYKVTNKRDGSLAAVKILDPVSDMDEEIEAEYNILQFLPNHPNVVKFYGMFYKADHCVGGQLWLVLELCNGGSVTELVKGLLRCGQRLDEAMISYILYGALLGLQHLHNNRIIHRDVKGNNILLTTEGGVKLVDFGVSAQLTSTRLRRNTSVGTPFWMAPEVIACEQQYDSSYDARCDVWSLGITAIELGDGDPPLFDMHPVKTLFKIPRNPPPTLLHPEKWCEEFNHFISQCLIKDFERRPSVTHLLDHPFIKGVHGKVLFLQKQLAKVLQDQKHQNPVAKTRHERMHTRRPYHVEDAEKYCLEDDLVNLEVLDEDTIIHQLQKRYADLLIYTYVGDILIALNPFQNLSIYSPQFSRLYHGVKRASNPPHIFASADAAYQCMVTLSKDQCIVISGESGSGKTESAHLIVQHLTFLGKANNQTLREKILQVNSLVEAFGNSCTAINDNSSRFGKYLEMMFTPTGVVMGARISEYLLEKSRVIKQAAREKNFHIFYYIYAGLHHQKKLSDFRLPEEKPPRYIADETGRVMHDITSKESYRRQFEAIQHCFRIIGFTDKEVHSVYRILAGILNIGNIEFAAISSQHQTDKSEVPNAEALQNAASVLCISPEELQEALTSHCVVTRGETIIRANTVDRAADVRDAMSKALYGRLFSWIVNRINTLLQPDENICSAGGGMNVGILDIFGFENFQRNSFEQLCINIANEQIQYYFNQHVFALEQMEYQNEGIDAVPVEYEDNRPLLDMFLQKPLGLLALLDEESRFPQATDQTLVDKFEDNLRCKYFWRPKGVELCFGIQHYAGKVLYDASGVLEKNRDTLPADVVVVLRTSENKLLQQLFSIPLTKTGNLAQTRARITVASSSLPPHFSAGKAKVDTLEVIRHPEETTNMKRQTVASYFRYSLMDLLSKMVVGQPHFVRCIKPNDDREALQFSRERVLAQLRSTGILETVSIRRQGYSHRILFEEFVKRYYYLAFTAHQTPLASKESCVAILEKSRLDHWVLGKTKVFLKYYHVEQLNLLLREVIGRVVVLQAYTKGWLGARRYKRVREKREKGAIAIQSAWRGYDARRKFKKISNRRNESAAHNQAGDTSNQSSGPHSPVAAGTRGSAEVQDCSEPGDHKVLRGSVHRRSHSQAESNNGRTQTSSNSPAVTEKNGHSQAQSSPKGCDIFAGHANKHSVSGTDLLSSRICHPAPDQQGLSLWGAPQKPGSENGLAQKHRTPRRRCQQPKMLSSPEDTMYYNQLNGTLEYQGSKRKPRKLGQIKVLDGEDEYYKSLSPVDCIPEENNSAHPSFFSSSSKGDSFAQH

[7] = target: Serine/threonine-protein kinase tousled-like 2 (Homo sapiens) (UniProt Q86UE8); settings: Compound concentration 1.0 uM
Chain of Serine/threonine-protein kinase tousled-like 2 (Homo sapiens) (Q86UE8 whole entry, looked up): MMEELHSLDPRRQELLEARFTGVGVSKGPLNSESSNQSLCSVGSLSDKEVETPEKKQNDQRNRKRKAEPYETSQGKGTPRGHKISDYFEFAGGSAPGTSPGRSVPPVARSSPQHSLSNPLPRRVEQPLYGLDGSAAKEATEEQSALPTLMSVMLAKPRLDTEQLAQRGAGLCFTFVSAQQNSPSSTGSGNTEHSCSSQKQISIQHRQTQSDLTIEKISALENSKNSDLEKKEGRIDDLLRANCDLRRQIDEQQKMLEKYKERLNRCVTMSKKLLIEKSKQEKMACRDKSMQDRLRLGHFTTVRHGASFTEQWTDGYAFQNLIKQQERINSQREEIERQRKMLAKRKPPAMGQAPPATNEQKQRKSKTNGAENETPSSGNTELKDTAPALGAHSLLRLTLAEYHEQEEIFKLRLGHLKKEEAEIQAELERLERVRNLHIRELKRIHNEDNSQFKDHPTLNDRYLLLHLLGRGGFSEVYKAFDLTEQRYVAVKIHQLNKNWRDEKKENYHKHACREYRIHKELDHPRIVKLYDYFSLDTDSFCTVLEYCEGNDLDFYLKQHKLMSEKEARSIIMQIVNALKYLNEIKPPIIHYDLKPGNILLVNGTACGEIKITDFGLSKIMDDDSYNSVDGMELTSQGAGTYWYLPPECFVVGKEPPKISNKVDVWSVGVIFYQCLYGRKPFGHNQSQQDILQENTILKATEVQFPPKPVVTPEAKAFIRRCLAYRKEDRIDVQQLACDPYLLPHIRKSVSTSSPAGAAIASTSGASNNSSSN

[8] = target: Alpha-2B adrenergic receptor (Homo sapiens) (UniProt P18089); settings: Compound concentration 10.0 uM
Chain of Alpha-2B adrenergic receptor (Homo sapiens) (P18089 whole entry): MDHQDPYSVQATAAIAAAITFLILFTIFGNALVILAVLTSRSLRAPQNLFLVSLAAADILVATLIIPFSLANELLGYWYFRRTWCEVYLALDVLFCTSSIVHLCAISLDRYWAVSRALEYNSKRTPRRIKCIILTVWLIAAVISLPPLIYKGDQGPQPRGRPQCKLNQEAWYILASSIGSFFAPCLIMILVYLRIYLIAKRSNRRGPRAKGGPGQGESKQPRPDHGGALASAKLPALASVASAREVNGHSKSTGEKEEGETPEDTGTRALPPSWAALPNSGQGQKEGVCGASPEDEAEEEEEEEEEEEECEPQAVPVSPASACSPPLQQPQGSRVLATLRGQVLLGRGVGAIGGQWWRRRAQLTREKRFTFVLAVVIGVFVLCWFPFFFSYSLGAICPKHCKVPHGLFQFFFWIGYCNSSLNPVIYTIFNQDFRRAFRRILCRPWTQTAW

Chain of Phosphatidylinositol 4-phosphate 3-kinase C2 domain-containing subunit alpha (Homo sapiens) (O00443 whole entry, the tested form may be a part): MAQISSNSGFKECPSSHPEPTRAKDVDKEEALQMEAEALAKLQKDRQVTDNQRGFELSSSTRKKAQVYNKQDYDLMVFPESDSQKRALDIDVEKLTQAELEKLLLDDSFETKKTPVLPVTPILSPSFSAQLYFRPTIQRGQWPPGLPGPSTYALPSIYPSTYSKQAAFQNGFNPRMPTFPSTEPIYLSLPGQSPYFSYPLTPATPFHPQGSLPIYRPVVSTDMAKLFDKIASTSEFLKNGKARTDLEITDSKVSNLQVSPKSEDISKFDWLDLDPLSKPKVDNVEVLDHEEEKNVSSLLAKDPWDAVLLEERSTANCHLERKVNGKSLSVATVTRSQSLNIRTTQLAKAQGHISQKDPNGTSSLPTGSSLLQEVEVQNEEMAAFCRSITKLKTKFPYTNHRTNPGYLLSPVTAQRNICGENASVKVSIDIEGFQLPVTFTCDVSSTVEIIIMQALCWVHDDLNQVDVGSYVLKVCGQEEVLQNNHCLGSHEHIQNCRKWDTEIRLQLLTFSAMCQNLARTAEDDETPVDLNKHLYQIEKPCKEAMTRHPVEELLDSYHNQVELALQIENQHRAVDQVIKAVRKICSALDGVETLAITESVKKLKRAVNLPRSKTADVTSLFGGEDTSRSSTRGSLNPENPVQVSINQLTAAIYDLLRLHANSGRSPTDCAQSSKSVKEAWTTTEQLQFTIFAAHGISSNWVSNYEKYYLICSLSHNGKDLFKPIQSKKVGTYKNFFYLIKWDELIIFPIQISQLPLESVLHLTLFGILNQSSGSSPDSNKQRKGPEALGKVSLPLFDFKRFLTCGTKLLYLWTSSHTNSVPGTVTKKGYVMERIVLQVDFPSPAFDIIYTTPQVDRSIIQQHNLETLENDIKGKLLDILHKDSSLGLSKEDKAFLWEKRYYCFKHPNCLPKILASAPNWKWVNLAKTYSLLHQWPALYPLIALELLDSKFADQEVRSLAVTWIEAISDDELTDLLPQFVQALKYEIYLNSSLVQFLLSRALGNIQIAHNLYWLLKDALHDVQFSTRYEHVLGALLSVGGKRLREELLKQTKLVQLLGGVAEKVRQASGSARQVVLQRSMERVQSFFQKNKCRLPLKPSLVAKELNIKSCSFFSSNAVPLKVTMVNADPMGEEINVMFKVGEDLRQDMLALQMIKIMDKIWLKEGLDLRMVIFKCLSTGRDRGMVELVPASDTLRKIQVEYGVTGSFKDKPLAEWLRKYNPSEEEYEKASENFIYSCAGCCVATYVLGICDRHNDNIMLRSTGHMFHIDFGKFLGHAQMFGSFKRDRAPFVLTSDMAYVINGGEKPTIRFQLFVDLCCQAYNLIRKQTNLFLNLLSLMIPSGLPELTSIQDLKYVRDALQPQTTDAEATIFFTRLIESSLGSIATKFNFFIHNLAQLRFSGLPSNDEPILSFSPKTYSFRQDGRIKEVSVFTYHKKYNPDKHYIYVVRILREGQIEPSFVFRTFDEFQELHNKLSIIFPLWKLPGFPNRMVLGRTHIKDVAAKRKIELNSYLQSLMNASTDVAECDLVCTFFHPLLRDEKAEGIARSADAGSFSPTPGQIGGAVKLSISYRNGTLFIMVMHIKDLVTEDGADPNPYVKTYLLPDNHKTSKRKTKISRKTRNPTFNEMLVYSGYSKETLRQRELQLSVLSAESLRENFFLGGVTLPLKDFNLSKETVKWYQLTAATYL
Chain of MAPK/MAK/MRK overlapping kinase (Homo sapiens) (Q9UQ07 whole entry): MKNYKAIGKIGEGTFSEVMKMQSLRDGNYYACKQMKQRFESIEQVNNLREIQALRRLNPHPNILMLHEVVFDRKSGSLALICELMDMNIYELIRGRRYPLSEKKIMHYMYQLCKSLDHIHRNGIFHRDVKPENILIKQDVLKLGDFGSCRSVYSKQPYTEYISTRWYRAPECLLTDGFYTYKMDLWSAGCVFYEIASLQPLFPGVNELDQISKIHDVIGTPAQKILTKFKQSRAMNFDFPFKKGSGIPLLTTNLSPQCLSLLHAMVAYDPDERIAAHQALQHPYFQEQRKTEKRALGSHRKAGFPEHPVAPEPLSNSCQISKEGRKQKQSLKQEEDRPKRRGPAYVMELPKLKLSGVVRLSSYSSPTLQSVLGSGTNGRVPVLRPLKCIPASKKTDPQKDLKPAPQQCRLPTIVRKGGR

CN1CCN(c2cnc3c(C4CCN(C(=O)c5ccc(OC(F)(F)F)cc5N)CC4)ncnc3c2)CC1 [BAY-885]
inactive: % residual kinase activity [1] 96% | % residual kinase activity [2] 94% | % residual kinase activity [3] 104% | % residual kinase activity [4] 115% | % residual kinase activity [5] 109% | % residual kinase activity [6] 111% | % residual kinase activity [7] 98% | inhibition [8] -8.47%
